{"source": "patent US20230416328A1", "about": "“C-Type Natriuretic Peptides and Methods Thereof in Treating Acute Lung Injury” (priority 2020, published 2023)", "key": {"LPS-induced sepsis": {"tested_on": "LPS-induced sepsis", "test": "LPS-induced sepsis lethality in Balb/c mice (survival)", "assay_type": "in vivo", "details": "LPS 10 mg/kg i.p., 1.0 mg/kg s.c.", "protocol": "Male Balb/c mice (11 week) were purchased from Kyudo (Saga, Japan) and maintained under a 12-hour light/12-hour dark cycle with free access to water and standard mouse diet (MF diet, Oriental Yeast Co., Ltd. Tokyo, Japan). […] Test articles were administered right after LPS administration. Survival was observed every 2 hours.\nTable 1. […] Shown is the % survival by hours. […] Survival was observed every 2 hours (FIGS. 13A and 13B). First mortality observed was in Italicized and bold and the last observation survival % was in bold in the table."}, "[1]": {"details": "species not stated; cited from earlier work"}, "[2]": {"details": "healthy human volunteers, bolus injection; cited from earlier work"}, "[3]": {"test": "Pharmacokinetic study: plasma CNP (ELISA) after subcutaneous bolus in CD-1 mice", "protocol": "All test articles were formulated or dissolved in 100 mM sorbitol, 100 mM methionine, 20 mM histidine, pH 6.0. […] Blood samples were processed in K2EDTA tubes to obtain plasma. Plasma was analyzed by commercially available CNP ELISA kit from Phoenix Pharmaceuticals (cat #EKE-012-03)."}, "[4]": {"test": "Pharmacokinetic study of dCNP-s1 and dCNP-s2: plasma CNP (ELISA) in CD-1 mice", "assay_type": "in vivo", "details": "2.0 mg/Kg s.c. bolus, FIG. 20", "protocol": "For this pharmacokinetic study, all animals (mice) for this study were maintained under a 12-hour light/12-hour dark cycle with free access to water and standard mouse diet (Lab Pico Rodent #5053; Animal Specialties, Woodburn, OR). Male CD-1 mice (6-8 weeks old; Charles River, Hollister, CA) were treated with 2.0 mg/Kg of CNP derivative s1 (dCNP-s1; PharmaIN Corp, Bothell, WA), and CNP derivative s2 (dCNP-s2; PharmaIN Corp, Bothell, WA) via subcutaneous administration between the shoulder blades."}, "[5]": {"details": "in vivo; cited from earlier work"}, "[6]": {"details": "hours '0' [sic] (second to last observation)"}}, "note": "Numbered stars: 1 amine (or outer) side, 2 acyl side, 3 side chain; on linkers, the order of the positions; unused ones are H or OH. Bridge positions count the residues as written; N and C are the ends. Square brackets hold non-standard residues; d marks the D form. Peptide text beside a SMILES is read from it. * marks the point of attachment. C18 diacid = O=C(O)CCCCCCCCCCCCCCCCC(=O)*; γGlu = O=C(O)[C@H](CCC(=O)[*:2])N[*:1]; Aad = N[C@@H](CCCC(=O)O)C(=O)O; AEEA = NCCOCCOCC(=O)O", "data": [{"compound": "CC[C@H](C)[C@@H]1NC(=O)[C@H](CCCNC(=N)N)NC(=O)[C@H](CC(=O)O)NC(=O)[C@H](CCSC)NC(=O)[C@H](CCCNC(=N)N)NC(=O)CNC(=O)CNC(=O)[C@H](Cc2ccccc2)NC(=O)[C@@H](NC(=O)[C@H](CO)NC(=O)[C@H](CO)NC(=O)[C@H](CCCNC(=N)N)NC(=O)[C@H](CCCNC(=N)N)NC(=O)[C@H](CC(C)C)NC(=O)[C@@H](N)CO)CSSC[C@@H](C(=O)N[C@@H](CC(N)=O)C(=O)N[C@@H](CO)C(=O)N[C@@H](Cc2ccccc2)C(=O)N[C@@H](CCCNC(=N)N)C(=O)N[C@@H](Cc2ccc(O)cc2)C(=O)O)NC(=O)CNC(=O)[C@H](CC(C)C)NC(=O)CNC(=O)[C@H](CO)NC(=O)[C@H](CCC(N)=O)NC(=O)[C@H](C)NC(=O)CNC1=O", "note": "[ANP, atrial natriuretic peptide]", "values": [{"measurement": "Percent animal survival at various time after LPS administration", "setting": "LPS-induced sepsis; hours 1 (last observation)", "value": 10, "unit": "%"}, {"measurement": "Percent animal survival at various time after LPS administration", "setting": "LPS-induced sepsis; hours 3 [sic]", "value": 100, "unit": "%"}, {"measurement": "Percent animal survival at various time after LPS administration", "setting": "LPS-induced sepsis; hours 7 [sic]", "value": 60, "unit": "%"}, {"measurement": "Percent animal survival at various time after LPS administration", "setting": "LPS-induced sepsis; hours 9 [sic]", "value": 30, "unit": "%"}, {"measurement": "Percent animal survival at various time after LPS administration", "setting": "LPS-induced sepsis; hours '0'", "value": 100, "unit": "%"}, {"measurement": "Percent animal survival at various time after LPS administration", "setting": "LPS-induced sepsis; [6]", "value": 10, "unit": "%"}, {"measurement": "Percent animal survival at various time after LPS administration", "setting": "LPS-induced sepsis; hours '2'", "value": 100, "unit": "%"}, {"measurement": "Percent animal survival at various time after LPS administration", "setting": "LPS-induced sepsis; hours '8'", "value": 30, "unit": "%"}, {"measurement": "Percent animal survival at various time after LPS administration", "setting": "LPS-induced sepsis; hours printed '6' (r14)", "value": 60, "unit": "%"}]}, {"compound": "CC[C@H](C)[C@@H]1NC(=O)[C@H](CCCNC(=N)N)NC(=O)[C@H](CC(=O)O)NC(=O)[C@H](CC(C)C)NC(=O)[C@H](CCCCN)NC(=O)[C@H](CC(C)C)NC(=O)CNC(=O)[C@H](Cc2ccccc2)NC(=O)[C@@H](NC(=O)CNC(=O)[C@H](CCCCN)NC(=O)[C@H](CO)NC(=O)[C@H](CC(C)C)NC(=O)CN)CSSC[C@@H](C(=O)O)NC(=O)CNC(=O)[C@H](CC(C)C)NC(=O)CNC(=O)[C@H](CO)NC(=O)[C@H](CCSC)NC(=O)[C@H](CO)NC(=O)CNC1=O", "note": "[CNP]", "values": [{"measurement": "half-life", "setting": "[1]", "value": "2 to 13", "unit": "min"}, {"measurement": "heart rate", "setting": "[2]", "value": "significant increase in heart rate"}, {"measurement": "systolic and diastolic blood pressure", "setting": "[2]", "value": "transient but significant decrease"}, {"measurement": "plasma CNP", "setting": "[3]; CD-1 mice, 2.0 mg/Kg s.c. bolus, FIG. 1A", "value": "low plasma level of CNP"}]}, {"compound": "CCCc1nc(C)c2c(=O)[nH]c(-c3cc(S(=O)(=O)N4CCN(CC)CC4)ccc3OCC)nn12", "note": "[VDN, Vardenafil]", "values": [{"measurement": "Percent animal survival at various time after LPS administration", "setting": "LPS-induced sepsis; hours 1 (last observation)", "value": 0, "unit": "%"}, {"measurement": "Percent animal survival at various time after LPS administration", "setting": "LPS-induced sepsis; hours 3 [sic]", "value": 100, "unit": "%"}, {"measurement": "Percent animal survival at various time after LPS administration", "setting": "LPS-induced sepsis; hours 7 [sic]", "value": 60, "unit": "%"}, {"measurement": "Percent animal survival at various time after LPS administration", "setting": "LPS-induced sepsis; hours 9 [sic]", "value": 20, "unit": "%"}, {"measurement": "Percent animal survival at various time after LPS administration", "setting": "LPS-induced sepsis; hours '0'", "value": 100, "unit": "%"}, {"measurement": "Percent animal survival at various time after LPS administration", "setting": "LPS-induced sepsis; [6]", "value": 0, "unit": "%"}, {"measurement": "Percent animal survival at various time after LPS administration", "setting": "LPS-induced sepsis; hours '2'", "value": 100, "unit": "%"}, {"measurement": "Percent animal survival at various time after LPS administration", "setting": "LPS-induced sepsis; hours '8'", "value": 20, "unit": "%"}, {"measurement": "Percent animal survival at various time after LPS administration", "setting": "LPS-induced sepsis; hours printed '5' (r13)", "value": 100, "unit": "%"}]}, {"compound": "CC[C@H](C)[C@@H]1NC(=O)[C@H](CCCNC(=N)N)NC(=O)[C@H](CC(=O)O)NC(=O)[C@H](CC(C)C)NC(=O)[C@H](CCCCN)NC(=O)[C@H](CC(C)C)NC(=O)CNC(=O)[C@H](Cc2ccccc2)NC(=O)[C@@H](NC(=O)CNC(=O)COCCOCCNC(=O)COCCOCCNC(=O)CCCCCCCCCCCCCCCCC(=O)O)CSSC[C@@H](C(=O)O)NC(=O)CNC(=O)[C@H](CC(C)C)NC(=O)CNC(=O)[C@H](CO)NC(=O)[C@H](CCCC(N)=O)NC(=O)[C@H](CO)NC(=O)CNC1=O", "note": "[dCNP-s1] ({C18 diacid-AEEA-AEEA}-GCFGLKLDRIGS[Aad](NH2)SGLGC-OH; disulfide 2-18)", "values": [{"measurement": "blood level of CNP relative to native CNP at similar weight/Kg dose", "setting": "[4]", "value": 10, "unit": "fold"}]}, {"compound": "CC[C@H](C)[C@@H]1NC(=O)[C@H](CCCNC(=N)N)NC(=O)[C@H](CC(=O)O)NC(=O)[C@H](CC(C)C)NC(=O)[C@H](CCCCN)NC(=O)[C@H](CC(C)C)NC(=O)CNC(=O)[C@H](Cc2ccccc2)NC(=O)[C@@H](NC(=O)CNC(=O)COCCOCCNC(=O)COCCOCCNC(=O)CC[C@H](NC(=O)CCCCCCCCCCCCCCCCC(=O)O)C(=O)O)CSSC[C@@H](C(=O)O)NC(=O)CNC(=O)[C@H](CC(C)C)NC(=O)CNC(=O)[C@H](CO)NC(=O)[C@H](CCCC(N)=O)NC(=O)[C@H](CO)NC(=O)CNC1=O", "note": "[dCNP-s2] ({C18 diacid-γGlu-AEEA-AEEA}-GCFGLKLDRIGS[Aad](NH2)SGLGC-OH; disulfide 2-18)", "values": [{"measurement": "blood level of CNP relative to native CNP at similar weight/Kg dose", "setting": "[4]", "value": 10, "unit": "fold"}]}, {"compound": "CCCCCCCCCCCCCCCCCC(=O)N[C@@H](CCCCN)C(=O)N[C@@H](CCCCN)C(=O)N[C@@H](CCCCN)C(=O)N[C@@H](CCCCN)C(=O)NCC(=O)NCC(=O)NCC(=O)NCC(=O)N[C@@H](CC(C)C)C(=O)N[C@@H](CO)C(=O)N[C@@H](CCCCN)C(=O)NCC(=O)N[C@H]1CSSC[C@@H](C(=O)O)NC(=O)CNC(=O)[C@H](CC(C)C)NC(=O)CNC(=O)[C@H](CO)NC(=O)[C@H](CCSC)NC(=O)[C@H](CO)NC(=O)CNC(=O)[C@H]([C@@H](C)CC)NC(=O)[C@H](CCCNC(=N)N)NC(=O)[C@H](CC(=O)O)NC(=O)[C@H](CC(C)C)NC(=O)[C@H](CCCCN)NC(=O)[C@H](CC(C)C)NC(=O)CNC(=O)[C@H](Cc2ccccc2)NC1=O", "note": "[dCNP]", "values": [{"measurement": "plasma CNP", "setting": "[3]; mouse, in vivo, sc, 2 mg/kg", "value": "sustained plasma presence"}]}, {"compound": "B-type natriuretic peptide [BNP]", "values": [{"measurement": "Percent animal survival at various time after LPS administration", "setting": "LPS-induced sepsis; hours 1 (last observation)", "value": 10, "unit": "%"}, {"measurement": "Percent animal survival at various time after LPS administration", "setting": "LPS-induced sepsis; hours 3 [sic]", "value": 100, "unit": "%"}, {"measurement": "Percent animal survival at various time after LPS administration", "setting": "LPS-induced sepsis; hours 7 [sic]", "value": 60, "unit": "%"}, {"measurement": "Percent animal survival at various time after LPS administration", "setting": "LPS-induced sepsis; hours 9 [sic]", "value": 20, "unit": "%"}, {"measurement": "Percent animal survival at various time after LPS administration", "setting": "LPS-induced sepsis; hours '0'", "value": 100, "unit": "%"}, {"measurement": "Percent animal survival at various time after LPS administration", "setting": "LPS-induced sepsis; [6]", "value": 10, "unit": "%"}, {"measurement": "Percent animal survival at various time after LPS administration", "setting": "LPS-induced sepsis; hours '2'", "value": 100, "unit": "%"}, {"measurement": "Percent animal survival at various time after LPS administration", "setting": "LPS-induced sepsis; hours '8'", "value": 20, "unit": "%"}, {"measurement": "Percent animal survival at various time after LPS administration", "setting": "LPS-induced sepsis; hours printed '5' (r13)", "value": 100, "unit": "%"}]}, {"compound": "PGQEHPNARKYKGANKKGLS KGCFGLKLDR IGSMSGLGC (PGQEHPNARKYKGANKKGLSKGCFGLKLDRIGSMSGLGC) [BMN-111]", "values": [{"measurement": "arterial blood pressure (BP)", "setting": "[5]", "value": "drops"}, {"measurement": "heart rate (HR)", "setting": "[5]", "value": "increases"}]}]}
